Assay [1] deals with TACE (TNF-alpha converting enzyme, ADAM-17) (Homo sapiens, UniProt P78536). Briefly: In vitro metalloprotease inhibition, TACE. The format is biochemical. The source says:
(§1) Blank cells indicate lack of data only.

The next assay deals with MMP-13 (collagenase-3) (Homo sapiens, UniProt P45452). In words: In vitro metalloprotease inhibition, MMP-13. Format: biochemical.
The target in assay [2] is T1, MMP-1 (Fibroblast collagenase) (Homo sapiens, UniProt P03956).
T1 sequence (P03956 100-469): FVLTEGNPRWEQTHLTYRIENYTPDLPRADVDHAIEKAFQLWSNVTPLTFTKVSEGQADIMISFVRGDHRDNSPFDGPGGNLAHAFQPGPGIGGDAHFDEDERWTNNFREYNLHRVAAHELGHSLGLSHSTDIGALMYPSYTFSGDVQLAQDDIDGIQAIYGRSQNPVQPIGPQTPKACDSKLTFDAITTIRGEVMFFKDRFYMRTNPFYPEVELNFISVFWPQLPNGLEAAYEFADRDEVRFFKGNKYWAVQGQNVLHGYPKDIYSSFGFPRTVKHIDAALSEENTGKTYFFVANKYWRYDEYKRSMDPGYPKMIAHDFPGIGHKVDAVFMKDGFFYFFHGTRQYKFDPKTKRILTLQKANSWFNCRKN
Briefly: In vitro metalloprotease inhibition, MMP-1. The format is biochemical.
Description: as §1

Assay [3] deals with T2, MMP-2 (72 kDa gelatinase, gelatinase A) (Homo sapiens, UniProt P08253).
T2 sequence (P08253 110-660): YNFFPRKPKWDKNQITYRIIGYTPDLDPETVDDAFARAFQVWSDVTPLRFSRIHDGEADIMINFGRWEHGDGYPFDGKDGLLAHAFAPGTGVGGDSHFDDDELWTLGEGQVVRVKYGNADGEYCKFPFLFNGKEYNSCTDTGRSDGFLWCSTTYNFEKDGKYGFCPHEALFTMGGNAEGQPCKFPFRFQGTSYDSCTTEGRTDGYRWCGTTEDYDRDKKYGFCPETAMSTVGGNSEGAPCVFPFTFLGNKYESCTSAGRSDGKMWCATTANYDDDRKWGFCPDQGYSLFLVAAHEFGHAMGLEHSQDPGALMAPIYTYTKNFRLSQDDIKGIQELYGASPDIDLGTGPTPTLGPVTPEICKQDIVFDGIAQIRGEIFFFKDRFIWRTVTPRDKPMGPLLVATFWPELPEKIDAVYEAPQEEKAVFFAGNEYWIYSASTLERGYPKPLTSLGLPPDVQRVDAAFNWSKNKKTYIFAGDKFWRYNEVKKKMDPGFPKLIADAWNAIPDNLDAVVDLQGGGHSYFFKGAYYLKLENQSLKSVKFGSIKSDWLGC
Briefly: In vitro metalloprotease inhibition, MMP-2. The format is biochemical.

In the next assay the target is MMP-3 (Stromelysin-1) (Homo sapiens, UniProt P08254). Briefly: In vitro metalloprotease inhibition, MMP-3. Format: biochemical.
Description: as §1

For the next assay, the target named is T3, ADAM-10 (UniProt O14672).
T3 sequence (O14672 1-748): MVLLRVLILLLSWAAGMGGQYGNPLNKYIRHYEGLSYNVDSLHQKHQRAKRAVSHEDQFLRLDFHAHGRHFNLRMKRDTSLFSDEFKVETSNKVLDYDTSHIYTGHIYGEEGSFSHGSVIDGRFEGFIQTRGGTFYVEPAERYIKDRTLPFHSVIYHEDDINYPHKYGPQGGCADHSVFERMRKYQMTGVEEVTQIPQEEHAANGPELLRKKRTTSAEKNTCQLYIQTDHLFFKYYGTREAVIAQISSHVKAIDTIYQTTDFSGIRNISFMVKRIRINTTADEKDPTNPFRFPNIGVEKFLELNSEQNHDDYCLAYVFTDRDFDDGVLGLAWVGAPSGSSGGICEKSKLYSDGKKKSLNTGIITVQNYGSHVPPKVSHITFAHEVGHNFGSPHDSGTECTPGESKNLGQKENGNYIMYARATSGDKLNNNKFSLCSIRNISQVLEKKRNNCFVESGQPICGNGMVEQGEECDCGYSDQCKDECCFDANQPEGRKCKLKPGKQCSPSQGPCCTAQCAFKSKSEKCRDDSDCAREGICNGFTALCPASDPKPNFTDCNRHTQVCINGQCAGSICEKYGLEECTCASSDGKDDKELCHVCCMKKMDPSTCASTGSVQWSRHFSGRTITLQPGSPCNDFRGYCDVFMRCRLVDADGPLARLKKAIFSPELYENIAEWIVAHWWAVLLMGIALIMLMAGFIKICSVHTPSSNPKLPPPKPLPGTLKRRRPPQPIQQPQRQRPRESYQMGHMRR
In words: ADAM-10 enzyme assay, cleavage of a fluorogenic 10-residue peptide.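 Note: mouse or human ADAM-10 at 5 nM active enzyme, pH 8.0 HEPES buffer with CaCl2 and NP-40, compounds titrated 100 µM down to 0.5 nM, fluorescence read after 16 h at room temperature.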 Format: biochemical, mouse or human (mADAM-10 or hADAM-10). As to conditions: in vitro.

Assay [4] addresses MMP-8 (Neutrophil collagenase) (Homo sapiens, UniProt P22894). In words: In vitro metalloprotease inhibition, MMP-8. Format: biochemical.
Assay [5] concerns the target MMP-9 (92 kDa gelatinase, gelatinase B) (Homo sapiens, UniProt P14780). In words: In vitro metalloprotease inhibition, MMP-9. The format is biochemical.

In patent publication US7629341B2, “Human ADAM-10 inhibitors” (Symphony Evolution, Inc., priority 2003, dated 2009) one finds IC50 data, which are given here for 8 molecules.

Broadly, the IC50 is the midpoint of a concentration-inhibition curve. The low end stands for higher potency, the high end for lower potency.

Sequence of MMP-3 (Stromelysin-1) (P08254 100-477, species assumed): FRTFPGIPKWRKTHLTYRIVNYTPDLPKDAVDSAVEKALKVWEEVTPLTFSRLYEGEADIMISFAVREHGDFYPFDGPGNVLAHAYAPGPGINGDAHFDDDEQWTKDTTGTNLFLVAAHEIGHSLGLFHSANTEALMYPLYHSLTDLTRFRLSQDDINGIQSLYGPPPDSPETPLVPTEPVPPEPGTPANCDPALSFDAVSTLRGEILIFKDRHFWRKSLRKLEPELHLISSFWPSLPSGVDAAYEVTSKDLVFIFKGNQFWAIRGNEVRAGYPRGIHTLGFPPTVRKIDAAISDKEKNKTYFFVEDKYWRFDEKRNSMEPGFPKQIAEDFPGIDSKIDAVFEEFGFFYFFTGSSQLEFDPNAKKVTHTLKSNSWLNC
Sequence of TACE (TNF-alpha converting enzyme, ADAM-17) (P78536 215-824): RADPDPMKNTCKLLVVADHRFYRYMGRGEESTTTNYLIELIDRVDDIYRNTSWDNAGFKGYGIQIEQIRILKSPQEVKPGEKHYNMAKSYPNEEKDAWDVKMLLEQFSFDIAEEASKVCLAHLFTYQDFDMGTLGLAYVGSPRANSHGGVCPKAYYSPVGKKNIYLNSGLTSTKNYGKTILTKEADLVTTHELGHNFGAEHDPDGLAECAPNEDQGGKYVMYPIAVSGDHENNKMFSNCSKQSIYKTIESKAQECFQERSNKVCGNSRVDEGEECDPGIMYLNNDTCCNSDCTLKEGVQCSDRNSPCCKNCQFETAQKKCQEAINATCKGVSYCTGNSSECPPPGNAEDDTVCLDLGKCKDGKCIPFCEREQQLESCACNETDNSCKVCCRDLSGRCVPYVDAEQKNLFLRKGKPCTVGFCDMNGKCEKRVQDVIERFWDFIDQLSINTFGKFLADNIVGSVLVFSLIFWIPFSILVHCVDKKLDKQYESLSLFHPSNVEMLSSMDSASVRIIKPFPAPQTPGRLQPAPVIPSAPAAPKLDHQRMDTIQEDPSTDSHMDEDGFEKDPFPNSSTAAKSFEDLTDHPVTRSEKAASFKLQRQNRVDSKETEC
Sequence of MMP-9 (92 kDa gelatinase, gelatinase B) (P14780 94-707, species assumed): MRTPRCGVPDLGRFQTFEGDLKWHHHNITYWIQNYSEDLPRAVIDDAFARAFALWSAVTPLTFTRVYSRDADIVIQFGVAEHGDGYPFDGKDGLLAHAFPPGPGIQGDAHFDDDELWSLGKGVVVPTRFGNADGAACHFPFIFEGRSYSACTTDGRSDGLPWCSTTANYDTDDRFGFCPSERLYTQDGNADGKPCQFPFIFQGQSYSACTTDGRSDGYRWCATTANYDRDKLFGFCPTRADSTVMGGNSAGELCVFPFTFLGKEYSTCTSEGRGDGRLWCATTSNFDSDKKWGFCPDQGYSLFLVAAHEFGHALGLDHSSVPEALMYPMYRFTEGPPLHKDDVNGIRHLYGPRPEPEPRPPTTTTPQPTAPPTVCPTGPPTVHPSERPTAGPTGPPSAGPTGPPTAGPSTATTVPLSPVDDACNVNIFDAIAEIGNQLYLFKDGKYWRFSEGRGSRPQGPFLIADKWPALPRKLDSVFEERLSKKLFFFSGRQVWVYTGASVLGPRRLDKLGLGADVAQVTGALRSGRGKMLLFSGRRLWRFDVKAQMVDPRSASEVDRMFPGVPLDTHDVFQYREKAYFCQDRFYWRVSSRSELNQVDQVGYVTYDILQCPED
Sequence of MMP-8 (Neutrophil collagenase) (P22894 101-467, species assumed): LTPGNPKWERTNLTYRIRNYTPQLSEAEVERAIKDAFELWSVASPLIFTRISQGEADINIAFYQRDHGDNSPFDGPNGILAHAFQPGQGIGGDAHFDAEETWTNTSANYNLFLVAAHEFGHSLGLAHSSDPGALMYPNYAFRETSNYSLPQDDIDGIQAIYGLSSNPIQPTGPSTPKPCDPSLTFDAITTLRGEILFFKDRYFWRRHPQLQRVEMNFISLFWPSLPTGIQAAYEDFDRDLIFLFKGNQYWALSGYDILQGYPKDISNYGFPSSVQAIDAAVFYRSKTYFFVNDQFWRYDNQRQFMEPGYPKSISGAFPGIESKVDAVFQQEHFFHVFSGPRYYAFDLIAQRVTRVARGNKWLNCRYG
Description for ADAM-10: mADAM-10 or hADAM-10 activity was measured as the ability to cleave a 10-residue peptide (DABCYL-Leu-Leu-Ala-Gln-Lys-*-LeuArg-Ser-Ser-Arg-EDANS). […] Enzyme was diluted to a final active concentration of 5 nM in Buffer A (50 mM HEPES 8.0, 100 mM NaCl, 1 mM CaCl2 and 0.01% NP-40). Serial dilutions for compounds were performed ranging from 100 μM to 0.5 nM using a Beckman Biomek 2000 in polypropylene plates (Greiner). […] This reaction was incubated for 16 hr at RT and fluorescence was read using identical conditions.

With `O=C(NO)[C@H]1CN(C(=O)C(=O)N2CCOCC2)CCN1S(=O)(=O)c1cc(F)c(Oc2ccc(Cl)cc2)c(F)c1` [Entry 31], the IC50 in assay [1] is 0.05 to 1 µM; against MMP-13 (collagenase-3), less than 0.05 µM; in assay [2], 1 to 20 µM; in assay [3] it was less than 0.05 µM; on MMP-3 (Stromelysin-1), 0.05 to 1 µM; against ADAM-10, less than 0.05 µM.

With `O=C(NO)[C@H]1CN(S(=O)(=O)NC(=O)N2CCCCC2)CCN1S(=O)(=O)c1cc(F)c(Oc2ccc(Cl)cc2)c(F)c1` [Entry 37], the IC50 in assay [1] is 0.05 to 1 µM; at MMP-13 (collagenase-3), less than 0.05 µM; in assay [2], 1 to 20 µM; in assay [3], less than 0.05 µM; against MMP-3 (Stromelysin-1) it was less than 0.05 µM; at ADAM-10, less than 0.05 µM.

Turning to `O=C(NO)[C@H]1CN(S(=O)(=O)NC(=O)N2CCOCC2)CCN1S(=O)(=O)c1cc(F)c(Oc2ccc(Cl)cc2)c(F)c1` [Entry 38], the IC50 in assay [1] was 0.05 to 1 µM; at MMP-13 (collagenase-3), less than 0.05 µM; in assay [2], 1 to 20 µM; in assay [3], less than 0.05 µM; against MMP-3 (Stromelysin-1) it was less than 0.05 µM; on ADAM-10 it was less than 0.05 µM.

On to `CN(C)CCS(=O)(=O)N1CCN(S(=O)(=O)c2cc(F)c(Oc3ccc(Cl)cc3)c(F)c2)[C@@H](C(=O)NO)C1` [Entry 54], for which the IC50 was less than 0.05 µM in assay [1]; less than 0.05 µM on MMP-13 (collagenase-3); 0.05 to 1 µM in assay [2]; less than 0.05 µM in assay [3]; less than 0.05 µM against MMP-3 (Stromelysin-1); less than 0.05 µM against ADAM-10.

`O=C(NO)[C@H]1CN(C(=O)c2cccnc2)CCN1S(=O)(=O)c1cc(F)c(Oc2ccc(Cl)cc2)c(F)c1` [Entry 59]: the IC50 is 0.05 to 1 µM in assay [1]; less than 0.05 µM against MMP-13 (collagenase-3); 1 to 20 µM in assay [2]; less than 0.05 µM in assay [3]; 0.05 to 1 µM on MMP-3 (Stromelysin-1); less than 0.05 µM at ADAM-10.

Turning to `O=C(NO)[C@H]1CN(S(=O)(=O)Cc2ccncc2)CCN1S(=O)(=O)c1cc(F)c(Oc2ccc(Cl)cc2)c(F)c1` [Entry 34], the IC50 was less than 0.05 µM in assay [1]; less than 0.05 µM against MMP-13 (collagenase-3); 1 to 20 µM in assay [2]; less than 0.05 µM in assay [3]; 0.05 to 1 µM against MMP-3 (Stromelysin-1); less than 0.05 µM on ADAM-10.

`O=C(NO)[C@H]1CN(C(=O)N2CCOCC2)CCN1S(=O)(=O)c1cc(F)c(Oc2ccc(Cl)cc2)c(F)c1` [Entry 30]: the IC50 in assay [1] is 0.05 to 1 µM; at MMP-13 (collagenase-3) it was less than 0.05 µM; in assay [4], less than 0.05 µM; in assay [2] it was 1 to 20 µM; in assay [3], less than 0.05 µM; in assay [5], 0.05 to 1 µM. Also, the results for the IC50 against MMP-3 (Stromelysin-1) and against ADAM-10 were 0.05 to 1 µM and less than 0.05 µM, respectively.

Regarding `O=C(NO)[C@H]1CN(S(=O)(=O)c2cccnc2O)CCN1S(=O)(=O)c1cc(F)c(Oc2ccc(Cl)cc2)c(F)c1` [Entry 45], the IC50 is 0.05 to 1 µM in assay [1]; less than 0.05 µM at MMP-13 (collagenase-3); 1 to 20 µM in assay [2]; less than 0.05 µM in assay [3]; 0.05 to 1 µM on MMP-3 (Stromelysin-1); less than 0.05 µM against ADAM-10.
